According to ChEMBL document CHEMBL1201862, “PubChem BioAssay data set” (2004):
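How tested: cells in 96-well plates exposed to compound for 48 hours at five concentrations. GI50 marks 50% less growth.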 The source made the active and inactive calls. No stated cut-off is given here; in the data, active = GI50 up to about 1.1 µM and inactive = higher.

Key:
Test in all cases: inhibition of tumour cell growth, NCI panel, 48 h
HOP-18 = tested on: HOP-18
DLD-1 = tested on: DLD-1
M19-MEL = tested on: M19-MEL
RXF 631 = tested on: RXF 631
DMS-273 = tested on: DMS-273
KM-20L2 = tested on: KM-20L2
SNB-78 = tested on: SNB-78
XF498 = tested on: XF498

Measured: GI50

COC(=O)C1C2C=CC(C2)C1(C(=O)OC)[S+]([O-])CC12CCC(CC1O)C2(C)C (centres undefined)
inactive: HOP-18 > 100 µM | DLD-1 60.8 µM | M19-MEL > 100 µM | RXF 631 > 100 µM | DMS-273 44.4 µM | KM-20L2 > 100 µM | SNB-78 > 100 µM | XF498 > 100 µM

N#CC1CCCCOCCOCCOCCOCCOCCCCCC1=O (centres undefined)
inactive: HOP-18 > 100 µM | DLD-1 > 100 µM | M19-MEL > 100 µM | RXF 631 > 100 µM | DMS-273 > 100 µM | KM-20L2 > 100 µM | SNB-78 > 100 µM

C/C(CCn1[nH]c(=O)ccc1=O)=N\O
inactive: HOP-18 > 100 µM | DLD-1 > 100 µM | M19-MEL > 100 µM | RXF 631 > 100 µM | DMS-273 > 100 µM | KM-20L2 > 100 µM | SNB-78 > 100 µM | XF498 > 100 µM

O=C(CC1=Nc2nnc(CCCCCCCc3nnc4n3C(=O)C(CC(=O)c3ccc5ccccc5c3)=N4)n2C1=O)c1ccc2ccccc2c1
inactive: HOP-18 > 100 µM | DLD-1 > 100 µM | M19-MEL > 100 µM | RXF 631 51.9 µM | DMS-273 > 100 µM | KM-20L2 > 100 µM | SNB-78 > 100 µM | XF498 > 100 µM

COCC1C(=O)c2cc3c(cc2C12C=CC1(C=C2)OCCO1)OCO3 (centres undefined)
inactive: DLD-1 2.22 µM | M19-MEL 2.93 µM | RXF 631 4.59 µM | DMS-273 11.1 µM | KM-20L2 10.6 µM | XF498 5.38 µM

Cc1cc(Br)cc(C)c1NC(=O)C(=O)C(C(=O)c1ccncc1)C1OC(=O)c2ccccc21 (centres undefined)
inactive: HOP-18 > 100 µM | DLD-1 > 100 µM | RXF 631 > 100 µM | DMS-273 > 100 µM | KM-20L2 > 100 µM | SNB-78 > 100 µM | XF498 > 100 µM

O=C1CC(c2c[nH]c3ccccc23)C(=O)N1 (centres undefined)
inactive: DLD-1 > 100 µM | M19-MEL > 100 µM | RXF 631 > 100 µM | DMS-273 > 100 µM | KM-20L2 > 100 µM | SNB-78 > 100 µM | XF498 > 100 µM

CCOC(=O)CC1=Nc2ccccc2SC1
inactive: HOP-18 > 100 µM | DLD-1 > 100 µM | M19-MEL > 100 µM | RXF 631 > 100 µM | DMS-273 > 100 µM | KM-20L2 > 100 µM | SNB-78 > 100 µM | XF498 > 100 µM
